Legend:
[1] = test system: patient with end stage renal failure undergoing dialysis; experiment: Arterial and valve calcification in a renal dialysis patient; type: in vivo, human; settings: 90 mg 2-hour i.v. infusion once a month for three months, one year following initial treatment
Method: The Effect of a Bisphosphonate on Arterial and Valve Calcification in a Renal Dialysis Patient A patient with end stage renal failure undergoing dialysis was diagnosed with severe osteoporosis. The patient was treated with 90 mg of pamidronate disodium administered via a 2-hour intravenous infusion once a month for a total of three months. […] This reduction in calcification was independently corraborated by three physicians who viewed the radiographic images in a blinded fashion.

[2] = test system: New Zealand White rabbit iliac arteries; experiment: Rabbit iliac stent model, restenosis at 28 days; type: in vivo
Method: A combined angioplasty and stenting procedure is performed in New Zealand White rabbit iliac arteries. Iliac artery balloon injury is performed by inflating a 3.0×9.0 mm angioplasty balloon in the mid-portion of the artery followed by “pull-back” of the catheter for 1 balloon length. Balloon injury is repeated 2 times, and a 3.0×12 mm stent is deployed at 6 atm for 30 seconds in the iliac artery. Balloon injury and stent placement is then performed on the contralateral iliac artery in the same manner. A post-stent deployment angiogram is performed. All animals receive oral aspirin 40 mg/day daily as anti-platelet therapy and are fed standard low-cholesterol rabbit chow. Twenty-eight days after stenting, animals are anesthetized and euthanized and the arterial tree is perfused at 100 mmHg with lactated Ringer's for several minutes, then perfused with 10% formalin at 100 mmHg for 15 minutes. The vascular section between the distal aorta and the proximal femoral arteries is excised and cleaned of periadventitial tissue. The stented section of artery is embedded in plastic and sections are taken from the proximal, middle, and distal portions of each stent. All sections are stained with hematoxylin-eosin and Movat pentachrome stains. Computerized planimetry is performed to determine the area of the internal elastic lamina (IEL), external elastic lamina (EEL) and lumen. The neointima and neointimal thickness is measured both at and between the stent struts. The vessel area is measured as the area within the EEL. Data are expressed as mean±SEM. Statistical analysis of the histologic data is accomplished using analysis of variance (ANOVA) due to the fact that two stented arteries are measured per animal with a mean generated per animal. A P<0.05 is considered statistically significant.
Zoledronic acid is administered orally by gavage at 30 mg/kg once daily from 3 days prior to stenting until day 27 post-stenting.

[3] = Stability of zoledronic acid in human plasma; type: in vitro ADME; settings: 37° C. for 72 hours
[4] = test system: rat carotid arteries, balloon injured; experiment: 28 day rat carotid artery balloon injury model (late neointimal lesion formation); type: in vivo; settings: for percent inhibition of neointimal lesion formation: 28 days post-balloon injury
Method: Inhibition of Late Neointimal Lesion Formation in the 28 Day Rat Carotid Artery Balloon Injury Model
Zoledronic acid is tested in the following rat model.
Rats are dosed orally with […]. Daily dosing starts 3 days prior to surgery and continues for 31 days. Rat carotid arteries are balloon injured using a method described by Clowes et al. Lab. Invest. 1983; 49; 208-215. Following sacrifice at 28 days post-balloon injury, carotid arteries are removed and processed for histologic and morphometric evaluation.

[5] = test system: PDGF receptor immunocomplexes of BALB/c 3T3 cells; settings: free drug, day after day
Method: PDGF-stimulated receptor tyrosine kinase assay is performed on the last piece of each sample to determine the zoledronic acid activity. The inhibition of PDGF-stimulated receptor tyrosine kinase activity in vitro is measured in PDGF receptor immunocomplexes of BALB/c 3T3 cells, analogously to the method described by E. Andrejauskas-Buchdunger and U. Regenass in Cancer Research 52, 5353-5358 (1992).

LDLr−/− mice = experiment: Mouse model of progression of advanced atherosclerosis with vulnerable plaques (arterial calcification, valve calcification, plaque stabilization); type: in vivo
Method: A mouse model of progression of advanced atherosclerosis with development of vulnerable plaques was employed. Male, 4-6 week old LDLr−/− mice were divided into treatment groups of 18-20 animals each. […] The remaining LDLr−/− animals were dosed subcutaneously once per day with either vehicle or zoledronic acid solution (10 mg/kg/day) five out of seven days a week from week from week 15 through week 18 of diet administration. From weeks 19 through 22, no treatment was administered, however mice remained on the atherosclerosis-inducing high cholesterol/cholic acid diet. Mice were sacrificed at the end of week 22 and the heart and aorta were removed. The upper portion of the heart attached to the most proximal portion of the aorta containing the aortic sinus were embedded in OCT and frozen. 10 micron-thick sections were cut through the aortic sinus using a cryostat. Twenty-eight sections per animal were stained with von Kassa and/or hematoxylin. Cross-sectional areas were analyzed by planimetry to allow determination of atherosclerotic lesion area and extent of calcification within the heart valves. The remaining aorta, from the ascending aorta to the iliac bifurcation, as well as the major branches of the aorta were fixed, parafin embedded and cross sectioned for histologic analysis. Atherosclerosis extent and lesion composition was determined for the aorta and innominate (also called brachiocephalic) arteries using approriate staining methodology including hemotoxylin and eosin staining, Verhoff von Giessen staining for elastin, Von Kassa staining for calcium, and immunohistochemical stains for inflammatory cells.

[6] = at 22 weeks, vs baseline lesions at 15 weeks and vehicle at 22 weeks

Structure (SMILES)	arterial and valve calcification (radiographic images) [1]	extent of restenotic lesion formation ([2]; 30 mg/kg oral gavage once daily, vs placebo)	EEL area compared with control (constrictive remodeling or aneurysmal-type expansion) ([2]; 30 mg/kg oral once daily)	healing of the intima in stented arterial segments ([2]; 30 mg/kg oral once daily)	reduction in average neointimal thickness ([2]; 30 mg/kg oral once daily, P<0.0001)	reduction in percent arterial stenosis ([2]; 30 mg/kg oral once daily, P<0.0002)	reduction in neointimal area ([2]; 30 mg/kg oral once daily, P<0.04)	stability in human plasma [3]	percent inhibition of neointimal lesion formation ([4]; 0.5 mg/kg oral gavage)	percent inhibition of neointimal lesion formation ([4]; 2.0 mg/kg oral gavage)	neointimal lesion formation at 28 days following balloon injury ([4]; oral, daily, dose of from 0.2 to 3.5 mg)	activity over time in the same assay [5]	plaque phenotype (vulnerable or rupture-prone plaques) (LDLr−/− mice; 10 mg/kg/day s.c., four weeks, at 22 weeks, vs baseline and vehicle)	calcification of the aortic valves (LDLr−/− mice; 10 mg/kg/day s.c., vs placebo-treated animals)	progression of atherosclerosis in the aorta and innominate arteries (LDLr−/− mice; 10 mg/kg/day s.c., weeks 15-18, read at 22 weeks of high cholesterol/cholic acid diet, vs vehicle)	fibrous caps of atherosclerotic lesions (LDLr−/− mice; [6])	inflammatory cells and areas of calcification in atherosclerotic lesions (LDLr−/− mice; [6])
NCCC(O)(P(=O)(O)O)P(=O)(O)O [pamidronate disodium, 3-amino-1-hydroxypropane-1,1-diphosphonic acid]	noticeable reduction	–	–	–	–	–	–	–	–	–	–	–	–	–	–	–	–
O=P(O)(O)C(O)(Cn1ccnc1)P(=O)(O)O [zoledronic acid, 2-(imidazol-1yl)-1-hydroxyethane-1,1-diphosphonic acid]	–	marked reduction	did not result in differences	well healed	29%	17%	17%	stable	17%	37%	significantly reduce	strong decrease	more stable phenotype	significantly less calcification	significantly reduced progression	thicker fibrous caps	less inflammatory cells and areas of calcification
